Assay results published in US20070202192A1, “Fungical Mixtures For Controlling Rice Pathogens” (BASF AKTIENGESELLSCHAFT, priority 2003, published 2007).
Counter-ions that a name gives are not always drawn.

System: Cochliobolus miyabeanus
Assay: activity against brown spot of rice caused by Cochliobolus miyabeanus, protective application
Format: in vivo
Conditions: rice seedlings cultivar Tai-Nong 67, protective application, 6 days after inoculation
Procedure: 1% by weight of the emulsifier Uniperol® EL (wetting agent having emulsifying and dispersant action based on ethoxylated alkylphenols) was added to this solution, and the mixture was diluted with water to the desired concentration.
Use example—activity against brown spot of rice caused by Cochliobolus miyabeanus, protective application […]
The next day, the plants were inoculated with an aqueous spore suspension of Cochliobolus miyabeanus. The test plants were then placed in climatized chambers at 22-24° C. and 95-99% relative atmospheric humidity for 6 days. The extent of the development of the infection on the leaves was then determined visually.
Evaluation was carried out by determining the percentage of infected leaf area. These percentages were converted into efficacies.
The efficacy (E) is calculated as follows using Abbot's formula: E=(1−α/β)·100 α corresponds to the fungicidal infection of the treated plants in % and β corresponds to the fungicidal infection of the untreated (control) plants in % An efficacy of 0 means that the infection level of the treated plants corresponds to that of the untreated control plants; an efficacy of 100 means that the treated plants are not infected.

| SMILES | Efficacy in % of the untreated control (4 ppm active compound in the spray liquor) [%] | Efficacy in % of the untreated control (1 ppm active compound in the spray liquor) [%] | Efficacy in % of the untreated control (16 ppm active compound in the spray liquor) [%] |
| --- | --- | --- | --- |
| CC1CCN(c2c(-c3c(F)cc(F)cc3F)c(Cl)nc3ncnn23)CC1 [I, 5-chloro-7-(4-methylpiperidin-1-yl)-6-(2,4,6-trifluorophenyl)-[1,2,4]triazolo[1,5-a]pyrimidine] | 33 |  |  |
| CCO[PH](=O)O [IIb (fosetyl-Al), ethyl phosphonate aluminum salt] |  | 0 | 0 |
